Results reported in paper PMC4446823, “Inhibition of RORγt activity and Th17 differentiation by a set of novel compounds” (BMC Immunology, 2015).
Like-named read-outs stand apart in the source and are kept apart here.

How the values were obtained:
[1] = molecular target: T1, RORγt (Homo sapiens, UniProt P51449); test: Gal4/RORγt-LBD luciferase reporter assay in RORγt-LBD+ 293 T stable cells; type: cell-based; conditions: RORγt-LBD+ 293 T cells, 5 μM, 6 h
T1 construct: expressed in transfected cells
T1 sequence (P51449 269-508 limits assumed): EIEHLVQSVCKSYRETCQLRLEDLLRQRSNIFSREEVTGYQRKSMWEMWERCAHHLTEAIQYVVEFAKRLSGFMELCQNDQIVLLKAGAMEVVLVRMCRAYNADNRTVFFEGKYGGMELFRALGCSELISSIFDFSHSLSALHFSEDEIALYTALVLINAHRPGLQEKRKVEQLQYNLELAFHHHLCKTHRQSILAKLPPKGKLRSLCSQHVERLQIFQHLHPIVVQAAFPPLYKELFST
Source text: (§1) The pGL4.31 (luc2P/GAL4UAS/Hygro) and pBIND vectors were obtained from Promega (Madison, WI, USA). An IRES-GFP sequence was first cloned into the pBIND vector. Human RORγt was then amplified using cDNA isolated from human peripheral blood mononuclear cells (PBMCs) (provided by Dr. Hui Zhang) and inserted into the reconstructed pBIND-IRES-GFP vector to generate a Gal4–RORγt-LBD-IRES-GFP fusion sequence. The primers that used to construct the pBIND- Gal4–RORγt-LBD-IRES-GFP plasmid are as follows: RORγt-LBD forward 5′- […]-3′,reverse5′- […] -3′.
The pGL4.31 reporter plasmid (4 μg) was transfected into 293 T cells (1 × 10^6) with Lipofectamine™ 2000 (Invitrogen) according to manufacturer instructions. The transfected cells were then selected in a medium containing 100 μg/mL hygromycin B (Roche, San Francisco, CA, USA) for 3 weeks to obtain a cell population that expressed the pGL4.31 reporter gene. Then, the stable cells were transfected with pBIND-RORγt-LBD-IRES-GFP plasmid (4 μg). The cotransfectants were sorted by green fluorescent protein (GFP) expression, which yielded a RORγt-LBD^+ 293Tstable reporter cell line with >96 % purity as determined by flow cytometry.
RORγt-LBD^+-293 T (1x10^4) stable cells wereseeded into 96-well plates (Corning Inc., Corning, NY)and incubated in DMEM complete medium overnight. Then the candidates were added with a final concentration of 5 μM. […]

[2] = molecular target: T1, RORγt; test: Gal4/RORγt-LBD luciferase reporter assay in RORγt-LBD+ Jurkat stable cells; type: cell-based; conditions: RORγt-LBD+ Jurkat cells, 6 h
Source text: as §1
A similar procedure was used to generate the Jurkat RORγt -LBD reporter cell line. For this, Jurkat cells (1 × 10^7) were transfected with pGL4.31 reporter plasmid (20 μg) by electroporation (Lonza, Basel, Switzerland) according to the manufacturer’s instructions. The transfected Jurkat cells were selected in RPMI 1640 medium containing 200 μg/mL hygromycin B prior to a second transfection. Stable Jurkat cotransfectants were then sorted based on GFP expression, and yielded a GFP^+ purity >96 % as determined by flow cytometry.
RORγt-LBD^+-Jurkat (2 × 10^4) stable cells were seeded into 96-well round-bottom plates (Corning Inc, Corning, NY) and incubated in RPMI1640 complete medium overnight. Then, Screened compounds (Enamine, Monmouth Junction, NJ) were added to the wells using a Tecan Freedom EVO 150 (Tecan, Männedorf, Switzerland) to a final concentration of 50 μM. Cells were treated with DMSO or 100 nM PMA (Sigma-Aldrich, St. Louis, MO) only for use as negative and positive controls, respectively. After a 6 h treatment period, cells were lysed and assayed for luciferase activity (Promega) following the manufacturer’s instructions.
RORγt-LBD^+-Jurkat cells were seeded into 96-well round-bottom plates (2 × 10^4) and cultured overnight prior to incubation with the screening compounds at 5-fold gradient final concentrations ranging from 5 μM to 8 nM. Cells were lysed 6 h later and assayed for luciferase activity (Promega) using the manufacturer’s instructions. Additionally, the results from the high-throughput screening at 50 μM concentration of candidates were also applied in the calculation of the EC50. The EC50 values were determined by plotting the logarithm of compound concentration versus relative luciferase activity to determine the half-maximal effective concentration (EC50).

[3] = system: mouse Th17 cell differentiation; test: In vitro mouse Th17 cell differentiation, mRNA by quantitative PCR; type: cell-based; conditions: 5 μM, Th17-polarizing conditions (TGF-β, IL-6), 4 days, normalized to GAPDH
Experimental: (§2) CD4^+CD25^− T cells were isolated from spleens of 8–12-week-old C57BL/6 mice as follows: single-cell suspensions were made by crushing the spleen through a cell strainer, and red blood cells (RBCs) were lysed with RBC lysis buffer. CD4^+ T cells were then purified using magnetic-activated cell sorting (MACS) column a CD4^+ T cell isolation kit (Miltenyi Biotec, Bergisch Gladbach, Germany) according to the manufacturer’s protocol.
(§3) Spleen cells (3 × 10^6) were stimulated in 6-well plates with 5 μg/mL plate-bound anti-CD3e antibody (eBioscience, San Diego, USA) and 2 μg/mL soluble anti-CD28 antibody (eBioscience) for 24 h. The activated cells were then collected, and seeded into 96-well round-bottom plates (2 × 10^4) for Th17 differentiation in the presence of 5 ng/mL recombinant human TGF-β (R&D Systems, Minneapolis, MN), 30 ng/mL recombinant mouse IL-6 (R&D Systems, Minneapolis, MN), and either the screening compounds (5 μM final concentration) or DMSO as control. After culturing for 2 days, fresh medium (100 uL/well) containing recombinant human TGF-β, recombinant mouse IL-6, and the previously-introduced screening compounds was added to the cells, which were then cultured for additional 2 days.
Total RNA was extracted from splenocytes with TRIzol (Invitrogen) after 5 days in culture. Approximately 1 μg total RNA was added to a 20 μL reaction volume for reverse transcription using the GoScript™ Reverse Transcription System (Promega) according to the manufacturer’s instructions. Synthesized cDNA was then used for real-time quantitative PCR using GoTaq® qPCR Master Mix (Promega). Gene expression of mouse Rorc, Il17a, and Il17f was normalized to that of Gapdh. The following primer sequences were used: Rorc forward 5′-TGTAATGTGG CCTACTCCTGCA-3′, reverse 5′-[…]-3′; Il17a forward 5′- […]-3′, reverse 5′-[…] -3′; Il17f forward 5′-[…]-3′, reverse 5′- […]-3′; Gapdh forward 5′-[…]-3′, reverse 5′-[…]-3′.

[4] = system: wild type Jurkat cells; test: Jurkat cell viability, MTT assay; type: cell-based, human; conditions: 48 h; for reduction of Jurkat cell viability over vehicle control: 5 μM (highest concentration)
Experimental: (§4) Jurkat cell viability after culturing in the presence of the screened compounds was assessed by MTT assay. In brief, wild type Jurkat cells were seeded (2 × 10^4) and incubated with the compounds in 5-fold gradient dilutions. MTT (dimethylthiazolyl-2-5-diphenyltetrazolium bromide) dye solution (Sigma, St. Louis, MO, USA) was added 48 h later and incubated at 37 °C for 4 h, MTT was reduced by live cells into a colored formazan product. After centrifugation at 1500 rpm for 5 min, the supernatant was discarded and 100 μL DMSO was added to the plate, which was gently shaken for 10 min to dissolve the formazan product. Absorbance at 570 nm wavelength was recorded using Thermo Scientific Multiskan FC (Thermo Scientific, Waltham, MA, USA). Each treatment was repeated in quadruplicate. Cell viabilities were defined relative to control cells treated only with DMSO, with results used as evaluation of cytotoxicity of candidates. The half-maximal cytotoxic concentration (CC50) for each compound was calculated from the dose–response curves with the aid of GraphPad Prism software 5.0 (GraphPad Software, San Diego, CA).

[5] = Jurkat cell viability, MTT assay; type: cell-based, human; conditions: human, wild-type Jurkat cells, highest concentration 5 μM
Experimental: as §4

[6] = system: IL-17A secretion; test: IL-17A secretion by ELISA in culture supernatant under Th17-polarizing conditions; type: cell-based; conditions: mouse CD4+ T cells, compound 5 μM, 5 days
Experimental: as §2, §3
The concentration of IL-17A in the splenocyte supernatant after 5 days in culture was determined using an ELISA kit (CUSABIO, Wuhan, China) according to the manufacturer’s protocol.

[7] = read-out: EC50, inhibition of RORγt activity, Gal4/RORγt-reporter system

Structure (SMILES)	reduction of RORγt activity in 293 T cells [1]	EC50 ([2]; 5 μM to 8 nM, read-out: EC50, relative luciferase activity, Gal4-reporter system) [µM]	Il17a gene expression compared with vehicle-treated control group [3]	Il17f gene expression compared with vehicle-treated control group [3]	EC50 [2, 7] [µM]	reduction of Jurkat cell viability over vehicle control [4]	CC50 at 48 h [5] [µM]	IL-17A concentration in culture supernatant [6] [pg/mL]	reduction of IL-17A concentration compared with vehicle-treated control cells [6] [%]	CC50 ([4]; wild-type Jurkat cells, highest concentration 5 μM) [µM]
CC1Cc2ccccc2N1S(=O)(=O)c1ccc(Cl)c(C(F)(F)F)c1 (centres unmarked) [744267-30-9, 1-[4-chloro-3-(trifluoromethyl)phenyl] sulfonyl-2-methyl-2,3-dihydroindole, reference compound]	strongly inhibited	0.723								
Cc1cc(NC(=O)NC(c2ccc(C(C)C)cc2)c2cccs2)no1 (centres unmarked) [compound 29, 3-(5-methyl-1,2-oxazol-3-yl) - 1-[(4-propan-2-ylphenyl) - thiophen-2-ylmethyl] urea]			significantly reduce	significantly reduce	2.1	less than 25%	> 5	209	44	
O=C(c1ccc(C2CCCCC2)cc1)N(CC1CCCO1)C1CCS(=O)(=O)C1 (centres unmarked) [compound 31, 4-cyclohexyl-N-(1,1-dioxothiolan-3-yl) - N-(oxolan-2-ylmethyl) benzamide]			significantly reduce	significantly reduce	17.5	less than 25%		226	39	
CCc1nnc(NC(=O)C2(S(=O)(=O)c3ccc(C)c(C)c3)CCCC2)s1 [compound 35, 1-(3,4-dimethylphenyl) sulfonyl-N-(5-ethyl-1,3,4-thiadiazol-2-yl) cyclopentane-1-carboxamide]			significantly reduce	significantly reduce	28	less than 25%				
CCCc1cc(C(=O)OCC(=O)NC(=O)NC2CCCC2)sc1C [compound 36, 2- Thiophenecarboxylic acid, 5-methyl-4-propyl-,2-[[(cyclopentylamino)carbonyl]amino] - 2-oxoethyl ester]			significantly reduce	significantly reduce	4.2	about 50%		189	49	> 5
